Test results: patent US11235001B2, “RUNX inhibitor” (KYOTO UNIVERSITY, priority 2016, dated 2022)

What was measured:
[1] = test system: DU-145 cells; settings: read-out: IC50 (μM) in DU-145 cells; DU-145 (androgen-independent), 48 hours
[2] = test system: AML cell lines expressing functional p53 (MV4-11, OCI-AML2, OCI-AML3 and MOLM-13); assay: Growth inhibition assay of AML cell lines expressing functional p53; assay type: cell-based, human; settings: 48 hours; at between nanomolar to low micromolar levels
Method: Growth inhibition of some AML cell lines expressing functional p53 (MV4-11, OCI-AML2, OCI-AML3 and MOLM-13) by PI polyamide conjugates at different concentrations was tested. Briefly, the cells were placed at a density of 1×10^5 cells/mL. Different concentrations of a PI polyamide conjugate (Chb-M′ or Chb-50) were added to media, and the cells were incubated for 48 hours (n=3). The number of viable cells when the PI polyamide conjugate was not added was used as a control (DMSO control). Cell viability was assessed by counting the viable cells with Cell Count Reagent SF (Nacalai tesque, Inc.) and Infinite (registered trademark) 200 PRO multimode reader (TECAN) according to the manufacturer's instructions.

[3] = test system: SU/SR cells; assay: Xenograft ALL mouse model (SU/SR); assay type: in vivo
[4] = test system: Mig6; assay: Western blotting of Mig6 in lung adenocarcinoma cells; assay type: cell-based, human; settings: 1 μM, 24 hours
Method: Cells were washed twice with ice cold phosphate-buffered saline (PBS) and harvested in protein lysis buffer [50 mM Tris (pH 7.4), 100 mM NaCl, 0.1 mM EDTA, 1 mM phenylmethylsulfonyl fluoride, 1 mM β-glycerophosphate, 2.5 mM sodium pyrophosphate, 1 mM Na3VO4, lx protease inhibitor (Roche) and PhosSTOP (Roche)]. Whole cell extracts were separated by SDS-polyacrylamide gel electrophoresis (SDS-PAGE) and electrotransferred onto polyvinylidene difluoride membranes. […] Blots were detected using Chemi-Lumi One Super (nacalai tesque, Inc.) and ChemiDoc™ XRS+ Imager (Bio-Rad Laboratories, Inc.), as recommended by the manufacturers. Protein levels were quantified with Image Lab Software (Bio-Rad Laboratories, Inc.).
To LU99A cells and A549 cells, 1 μM Chb-M′ was administered. After 24 hours, the expression of Mig6 protein was evaluated by the Western blotting method (see the above-described “Immunoblotting”). […]

[5] = Half-life in mouse; settings: in vivo
[6] = test system: ROR1 and ROR2; assay: qRT-PCR of ROR1 and ROR2 in DAOY; assay type: cell-based, human; settings: 1 μM, 6 hours
Method: A total RNA was isolated with RNeasy mini kit (Qiagen) and reverse transcribed with Reverse script kit (TOYOBO) to generate cDNA. Real-time quantitative polymerase chain reaction (PCR) was carried out with 7500 Real-Time PCR System (Applied Biosystems) according to the manufacturer's instructions. Results were normalized to GAPDH levels. Relative expression levels were calculated using the 2-ΔΔCt method.
To medulloblastoma cell line DAOY, 1 μM Chb-M′ was administered. After 6 hours, the mRNA levels of cancer promoting factors ROR1 and ROR2, which are important for medulloblastoma, were evaluated by qRT-PCR (see the above-described “Real-time quantitative PCR (qRT-PCR)”). As a control, DMSO was administered. In the figure, the mRNA expression levels of ROR1 and ROR2 are shown as values relative to those in the DMSO-treated group. As evident from FIG. 48, the expressions of ROR family were suppressed by Chb-M′ at transcriptional levels.

For `CN(C)CCCNC(=O)c1cc(NC(=O)c2cc(NC(=O)c3cc(NC(=O)c4cc(NC(=O)CCCNC(=O)c5nc(NC(=O)c6nc(NC(=O)c7cc(NC(=O)c8nc(NC(=O)CCNC(=O)CCCc9ccc(N(CCCl)CCCl)cc9)cn8C)cn7C)cn6C)cn5C)cn4C)cn3C)cn2C)cn1C` [Chb-M′], the IC50 [1] was 1.82 µM, the “Growth inhibition of AML cells” value [2] was “highly effective” and the “H&E staining of bone marrow” value ([3]; NOG mice with SU/SR) was “homogeneity was lost”. The “Invasion of liver by transplanted PhALL cells (hCD45 staining)” value ([3]; NOG mice with SU/SR) was “reduced”, the “Invasion of spleen by transplanted PhALL cells (hCD45 staining), compared with liver” value ([3]; NOG mice with SU/SR) was “same results” and the “hCD45 staining of bone marrow (human leukemia cells)” value ([3]; NOG mice with SU/SR) was “most of the brown parts lost”. The “Lengthening of overall survival periods” value ([3]; NOG mice with SU/SR (Ph+), 320 μg/kg IV twice a week) was “about 1.8 times”, the “Expression level of Mig6 protein” value ([4]; A549 cells) was “enhanced” and the “Expression level of Mig6 protein” value ([4]; LU99A cells) was “enhanced”. For the same compound, the half-life [5] was ~5 h and the “Expressions of ROR family (ROR1 and ROR2 mRNA)” value [6] was “suppressed”.
